Literature values in patent US3995028A, “Antibiotic OS-3256-B” (The Kitasato Institute, priority 1975, dated 1976).

System: animal tumors such as leukemia L-1210, Sarcoma-180 and Hela cells

SMILES: C[C@H](N)C(=O)N[C@@H](CCC(=O)C=[N+]=[N-])C(=O)N[C@@H](CCC(=O)C=[N+]=[N-])C(=O)O [Alazopeptin, L-alanyl-(6-diazo-5-oxo)-L-norleucyl-(6-diazo-5-oxo)-L-norleucine]
- inhibitory activity against animal tumors: inhibitory activity against animal tumors
